EC50 and Ki data for 15 compounds are collected here from patent publication US9765065B2, “Therapeutic substituted cyclopentanes” (ALLERGAN, INC., priority 2007, dated 2017).

Experiment [1] has as its target T1, EP2 (Homo sapiens, UniProt P43116). The experiment in a line: EP2 flipr. The class given is cell-based. An excerpt: (§1) U.S. patent application Ser. No. 11/553,143, filed on Oct. 26, 2006, incorporated by reference herein in its entirety, describes the methods used to obtain the in vitro data in the table below.
The target of experiment [2] is T1, EP2. The experiment can be described thus: EP2 binding Ki.
From the text: as §1

Experiment [3] concerns the target T2, EP4 (Homo sapiens, UniProt P35408). The experiment can be described thus: EP4 binding Ki.
From the text: as §1

Experiment [4] addresses T1, EP2. The experiment can be described thus: EP2 cAMP. Type of experiment: cell-based.
From the text: as §1

Experiment [5] has as its target T2, EP4. The experiment can be described thus: EP4 flipr. Type of experiment: cell-based.
From the text: as §1

T2 sequence (P35408 whole entry): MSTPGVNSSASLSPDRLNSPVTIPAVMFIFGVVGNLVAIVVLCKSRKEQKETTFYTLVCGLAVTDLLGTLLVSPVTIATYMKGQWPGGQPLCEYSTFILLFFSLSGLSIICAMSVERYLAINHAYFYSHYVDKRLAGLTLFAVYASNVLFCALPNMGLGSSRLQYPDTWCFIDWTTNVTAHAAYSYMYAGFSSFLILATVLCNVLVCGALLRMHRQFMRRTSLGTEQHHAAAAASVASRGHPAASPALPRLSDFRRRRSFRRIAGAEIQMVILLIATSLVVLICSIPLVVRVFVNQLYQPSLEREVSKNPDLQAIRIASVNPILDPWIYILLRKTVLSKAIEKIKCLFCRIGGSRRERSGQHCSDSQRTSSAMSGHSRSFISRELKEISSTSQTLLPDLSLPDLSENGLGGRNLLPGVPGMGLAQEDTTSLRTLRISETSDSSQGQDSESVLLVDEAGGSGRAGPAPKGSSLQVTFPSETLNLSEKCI
T1 sequence (P43116 whole entry): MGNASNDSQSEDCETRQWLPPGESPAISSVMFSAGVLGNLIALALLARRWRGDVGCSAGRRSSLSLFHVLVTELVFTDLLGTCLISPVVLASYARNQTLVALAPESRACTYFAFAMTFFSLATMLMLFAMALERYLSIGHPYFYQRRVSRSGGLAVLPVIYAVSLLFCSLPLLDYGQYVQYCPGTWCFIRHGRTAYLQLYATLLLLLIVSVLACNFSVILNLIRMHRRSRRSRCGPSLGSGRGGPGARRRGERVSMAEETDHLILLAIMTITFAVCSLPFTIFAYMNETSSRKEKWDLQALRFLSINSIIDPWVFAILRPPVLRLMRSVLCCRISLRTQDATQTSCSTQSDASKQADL

The EC50 is the concentration needed to bring the measured effect to its halfway point. The low end stands for an effect from little substance, the high end for a need for much substance. Usually Ki stands for the dissociation constant of the complex between target and ligand, obtained from inhibition or displacement. The low end stands for higher affinity, the high end for lower affinity. For the compound `O=C(O)c1ccc(CCC[C@@H]2[C@@H](C#Cc3cccnc3)[C@H](O)C[C@H]2Cl)s1` [Example 31, 5-(3-((1R,2S,3R,5R)-5-chloro-3-hydroxy-2-(pyridin-3-ylethynyl)cyclopentyl)propyl)thiophene-2-carboxylic acid], the EC50 worked out at 2 nM on EP2 [1], 0.3 nM on EP2 [4] and 4200 nM on EP4 [5]. The Ki is 4 nM on EP2 [2] and 1440 nM at EP4 [3].
Turning to `CCCc1cc(/C=C/[C@@H]2[C@@H](CCCc3ccc(C(=O)O)s3)[C@H](Cl)C[C@H]2O)ccn1` [Example 13, 5-(3-((1R,2R,3R,5R)-5-chloro-3-hydroxy-2-((E)-2-(2-propylpyridin-4-yl)vinyl)cyclopentyl)propyl)thiophene-2-113 carboxylic acid], the results for the EC50 at EP2 [1], on EP2 [4] and at EP4 [5] were more than 10000 nM, 0.4 nM and more than 10000 nM, respectively. In addition, the Ki was determined as 2 nM at EP2 [2] and 193 nM on EP4 [3].
As for `O=C(O)c1ccc(CCC[C@@H]2[C@@H](/C=C/c3cncc(Cl)c3)[C@H](O)C[C@H]2Cl)s1` [Example 3, 5-(3-((1R,2R,3R,5R)-5-chloro-2-((E)-2-(5-chloropyridin-3-yl)vinyl)-3-hydroxycyclopentyl)propyl)-thiophene-2-carboxylic acid], the EC50 came out at 101 nM on EP2 [1], 1.3 nM on EP2 [4] and 15900 nM on EP4 [5]. The inhibitory constant (Ki) stood at 10 nM at EP2 [2] and 3500 nM at EP4 [3].
Regarding `C=CCCc1cccc(C#C[C@@H]2[C@@H](CCCc3ccc(C(=O)O)s3)[C@H](Cl)C[C@H]2O)c1` [Example 27, 5-(3-((1R,2S,3R,5R)-2-((3-(but-3-enyl)phenyl)ethynyl)-5-chloro-3-hydroxycyclopentyl)propyl)thiophene-2-carboxylic acid], the EC50 is 19 nM at EP2 [1], 0.03 nM on EP2 [4] and 11000 nM at EP4 [5]. Also, the results for the Ki at EP2 [2] and on EP4 [3] were 1 nM and 436 nM, respectively.
For `O=C(O)c1ccc(CCC[C@@H]2[C@@H](C#Cc3ccncc3)[C@H](O)C[C@H]2Cl)s1` [Example 32, 5-(3-((1R,2S,3R,5R)-5-chloro-3-hydroxy-2-(pyridin-4-ylethynyl)cyclopentyl)propyl)thiophene-2-carboxylic acid], the concentration giving a half-maximal response (EC50) on EP2 [1] is 306 nM; on EP2 [4] it was 7 nM; on EP4 [5], more than 10000 nM. For the same compound, the inhibitory constant (Ki) at EP2 [2] turned out to be 79 nM; on EP4 [3], 8670 nM.
For the compound `O=C(O)c1ccc(CCC[C@@H]2[C@@H](C#Cc3ccccc3)[C@H](O)C[C@H]2C(F)(F)F)s1` (single isomer, unassigned) [Example 24], the EC50 on EP2 [1] stood at 107 nM; at EP2 [4], 4 nM. At EP2 [2], this compound came in with an inhibition constant (Ki) of 41 nM.
`C/C=C/c1cc(Cl)cc(/C=C\[C@@H]2[C@@H](CCCc3ccc(C(=O)O)s3)[C@H](Cl)C[C@H]2O)c1` [Example 11, 5-(3-((1R,2R,3R,5R)-5-chloro-2-((Z)-3-chloro-5-((E)-prop-1-enyl)styryl)-3-hydroxycyclopentyl)propyl)thiophene-2-carboxylic acid]: the results for the concentration for a half-maximal effect (EC50) on EP2 [1], at EP2 [4] and on EP4 [5] were 2180 nM, 12 nM and 6460 nM, respectively. The inhibitory constant (Ki) came out at 24 nM at EP2 [2] and 239 nM at EP4 [3].
Consider `O=C(O)c1ccc(CCC[C@@H]2[C@@H](C#Cc3cccc(CCCO)c3)[C@H](O)C[C@H]2Cl)s1` [Example 33, 5-(3-((1R,2S,3R,5R)-5-chloro-3-hydroxy-2-((3-(3-hydroxypropyl)phenyl)ethynyl)cyclopentyl)propyl)thiophene-2-carboxylic acid], for which the Ki on EP2 [2] amounted to 2 nM; at EP4 [3], 1520 nM. The EC50 was found to be 0.22 nM at EP2 [4] and 8990 nM at EP4 [5].
For the compound `O=C(O)c1ccc(CCC[C@@H]2[C@@H](C#Cc3ccsc3)[C@H](O)C[C@H]2Cl)s1` [Example 29, 5-(3-((1R,2S,3R,5R)-5-chloro-3-hydroxy-2-(thiophen-3-ylethynyl)cyclopentyl)propyl)thiophene-2-carboxylic acid], the figures for the inhibitory constant (Ki) on EP2 [2] and on EP4 [3] were 64 nM and 1870 nM, respectively. The half-maximal effective concentration (EC50) at EP2 [4] was 3.3 nM; on EP4 [5] it was 5910 nM.
Consider `O=C(O)c1ccc(CCC[C@@H]2[C@@H](C#Cc3cc(Cl)cc(Cl)c3)[C@H](O)C[C@H]2Cl)s1` [Example 25, 5-(3-((1R,2S,3R,5R)-5-chloro-2-((3,5-dichlorophenyl)ethynyl)-3-hydroxycyclopentyl)propyl)thiophene-2-carboxylic acid], for which the EC50 came out at 133 nM at EP2 [1], 0.09 nM on EP2 [4] and 1910 nM on EP4 [5]. In addition, the results for the inhibition constant (Ki) at EP2 [2] and on EP4 [3] were less than 0.08 nM and 466 nM, respectively.
With `O=C(O)c1ccc(CCC[C@@H]2[C@@H](/C=C/c3cc(Cl)nc(Cl)c3)[C@H](O)C[C@H]2Cl)s1` [Example 4, 5-(3-((1R,2R,3R,5R)-5-chloro-2-((E)-2-(2,6-dichloropyridin-4-yl)vinyl)-3-hydroxycyclopentyl)propyl)-thiophene-2-carboxylic acid], the concentration giving a half-maximal response (EC50) at EP2 [1] came to 44 nM; at EP2 [4], 0.09 nM; on EP4 [5], 15900 nM. For the same compound, the Ki at EP2 [2] stood at 2.3 nM; at EP4 [3], 162 nM.
Consider `Cc1cc(C)cc(/C=C/[C@@H]2[C@@H](CCCc3ccc(C(=O)O)s3)[C@H](Cl)C[C@H]2O)c1` [Example 8, 5-(3-((1R,2R,3R,5R)-5-chloro-2-(3,5-dimethylstyryl)-3-hydroxycyclopentyl)propyl)thiophene-2-carboxylic acid], for which the concentration giving a half-maximal response (EC50) was 328 nM on EP2 [1], 1.4 nM on EP2 [4] and 10000 nM at EP4 [5]. The inhibitory constant (Ki) at EP2 [2] turned out to be 8 nM; at EP4 [3], 86 nM.
For `C/C=C/c1cc(Cl)cc(/C=C/[C@@H]2[C@@H](CCCc3ccc(C(=O)O)s3)[C@H](Cl)C[C@H]2O)c1` [Example 10, 5-(3-((1R,2R,3R,5R)-5-chloro-2-((E)-3-chloro-5-((E)-prop-1-enyl)styryl)-3-hydroxycyclopentyl)propyl)thiophene-2-carboxylic acid], in that order: 1640 nM, 0.1 nM, more than 10000 nM, 1.4 nM and 90 nM.
As to `O=C(O)c1ccc(CCC[C@@H]2[C@@H](C#Cc3ccccn3)[C@H](O)C[C@H]2Cl)s1` [Example 30, 5-(3-((1R,2S,3R,5R)-5-chloro-3-hydroxy-2-(pyridin-2-ylethynyl)cyclopentyl)propyl)thiophene-2-carboxylic acid], the 50% effective concentration (EC50) on EP2 [1] is 3 nM; on EP2 [4], 0.2 nM; on EP4 [5], more than 10000 nM. In addition, the inhibition constant (Ki) at EP2 [2] was determined as 11 nM; on EP4 [3], 2140 nM.
For the compound `O=C(O)c1ccc(CCC[C@@H]2C(=O)C[C@@H](O)[C@@H]2C#Cc2ccccc2)s1` [Example 18, 5-(3-((1S,2S,3R)-3-hydroxy-5-oxo-2-(phenylethynyl)cyclopentyl)propyl)thiophene-2-carboxylic acid], the 50% effective concentration (EC50) at EP2 [1] worked out at 22 nM; at EP2 [4] it was 0.6 nM; on EP4 [5], 3220 nM. Also, the Ki at EP2 [2] came out at 30 nM; at EP4 [3], 1790 nM.
